This assay has as its system HBsAg secretion, HepG2-Clone42 cells (Tet-inducible HBV-expressing, HBV ayw strain). The assay can be described thus: HBsAg assay (HBsAg ELISA, secreted HBV sAg from HepG2-Clone42 cells). It counts as cell-based. Here is the method: HepG2-Clone42, a Tet-inducible HBV-expressing cell line with a stably integrated 1.3 mer copy of the HBV ayw strain, was generated based on the Tet-inducible HepAD38 cell line with slight modifications. Ladner S K, et al., Antimicrobial Agents and Chemotherapy. 41(8):1715-1720 (1997). HepG2-Clone42 cells were cultured in DMEM/F-12+Glutamax™ (Life Technologies, Carlsbad, Calif., USA), supplemented with 10% fetal bovine serum (Life Technologies), G-418 (Corning, Manassas, Va., USA) at a final concentration of 0.5 mg/mL, and 5 μg/mL Doxycycline (Sigma, St. Louis, Mo., USA) and maintained in 5% CO2 at 37° C.
HepG2-Clone42 cells were seeded into black clear-bottom 96-well plates at a concentration of 6.0×10^4 cells/well. 24 hours post-seeding, the cells were treated with 200 μl/well of media containing five-fold serial dilutions of compounds in DMSO. DMSO alone was used as the no drug control. The final DMSO concentration in all wells was 0.5%.
The HBsAg ELISA kit (Alpha Diagnostic International, San Antonio, Tex., USE, Catalog #4110) was used to determine the level (semi-quantitative) of secreted HBV sAg. The HBSAg ELISA assay was performed following the manufacturer's protocol as described.
Step 1. Pipet 100 μL each of compound or DMSO treated samples into HBsAg ELISA plates. Seal plates and incubate at room temp for 60 minutes.
Step 2. Aspirate samples and wash three times with Wash Buffer. Dispense 100 μL of antibody-HRP conjugate to each well. Incubate at room temp for 30 minutes.
Step 3. Aspirate samples and wash three times with Wash Buffer. Add 100 μL of TMB Substrate to all wells and incubate 15 minutes at room temp.
Step 4. Dispense 100 μL of Stop Solution to each well. Measure absorbance of ELISA plate at 450 nm.
Dose-response curves were generated and the EC50 value was defined as the compound concentration at which HBsAg secretion was reduced 50% compared to the DMSO control.
EC50 values were determined as follows:
Determine the percent of HBsAg secretion inhibition. Calculate the percent inhibition on of HBsAg secretion inhibition using the following equation: […]
where XC is the absorbance signal from compound-treated well; MB is average absorbance signal (background signal) for column 12 (no cells+HBsAg ELISA sample buffer) and MD is average absorbance signal from DMSO-treated wells. Then calculate EC50 values by non-linear regression using a four parameter curve logistic equation.
The curve fit model employed is XLFit Dose Response One Site Model 204: y=(A+((B−A)/(1+(10^((C−x)*D))))) where A is the minimum y value, B is the maximum y value, C is the log EC50 value, and D is the slope factor. In the following table+≥100 nM; 100 nM>++≥1 nM; 1 nM>+++
(In an ELISA, binding on a coated surface is turned into a signal by an enzyme label.)

[1] abbreviates: read-out: HBsAg, EC50 = concentration at which HBsAg secretion was reduced 50% compared to DMSO control.
Where [2] appears, read: Hepatitis B virus, read-out: HBsAg (nM), EC50 = concentration at which HBsAg secretion was reduced 50% compared to DMSO control.

Structures are written as SMILES. Like-named read-outs stand apart in the source and are kept apart here.

On to `COc1cccc2nn3c(c12)-c1cc(=O)c(C(=O)O)cn1C(C(C)(C)C)C3` (single isomer, unassigned) [Example 1.4-II, 6-(tert-butyl)-13-methoxy-2-oxo-6,7-dihydro-2H-pyrido[2′,1′:3,4]pyrazino[1,2-b]indazole-3-carboxylic acid], for which the EC50 under setting [1] lay in the range of 1 to 100 nM. For the compound `CC(C)(C)C1Cn2nc3c(OCC(F)F)cccc3c2-c2cc(=O)c(C(=O)O)cn21` (racemic) [Example 2.10, 6-(tert-butyl)-10-(2,2-difluoroethoxy)-2-oxo-6,7-dihydro-2H-pyrido[2′,1′:3,4]pyrazino[1,2-b]indazole-3-carboxylic Acid], the EC50 under setting [2] is less than 1 nM.

With `COCCCOc1cccc2c3n(nc12)C1CCC(C)(C)C1n1cc(C(=O)O)c(=O)cc1-3` (single isomer, unassigned) [Example 6.1-II, 12-(3-methoxypropoxy)-3,3-dimethyl-7-oxo-2,3,3a,14a-tetrahydro-1H,7H-cyclopenta[5,6]pyrido[2′,1′:3,4]pyrazino[1,2-b]indazole-6-carboxylic Acid], under setting [1], the EC50 is less than 1 nM. Consider `CC(C)(C)C1Cn2nc3c(OCC(=O)O)cccc3c2-c2cc(=O)c(C(=O)O)cn21` (racemic) [Example 2.23, 6-(tert-butyl)-10-(carboxymethoxy)-2-oxo-6,7-dihydro-2H-pyrido[2′,1′:3,4]pyrazino[1,2-b]indazole-3-carboxylic Acid], for which the EC50 under setting [2] was in the range of 1 to 100 nM. For the compound `COc1cccc2c3n(nc12)C1CCC(C)(C)C1n1cc(C(=O)O)c(=O)cc1-3` (single isomer, unassigned) [Example 5.1-I, 12-methoxy-3,3-dimethyl-7-oxo-2,3,3a,14a-tetrahydro-1H,7H-cyclopenta[5,6]pyrido[2′,1′:3,4]pyrazino[1,2-b]indazole-6-carboxylic Acid], under setting [1], the EC50 is less than 1 nM. Turning to `CCCOc1cccc2c3n(nc12)CC(C(C)(C)C)n1cc(C(=O)O)c(=O)cc1-3` (racemic) [Example 2.11, 6-(tert-butyl)-2-oxo-10-propoxy-6,7-dihydro-2H-pyrido[2′,1′:3,4]pyrazino[1,2-b]indazole-3-carboxylic Acid], the EC50 under setting [2] was less than 1 nM. For `COCC(C)(C)C1Cn2nc3c(OC)cccc3c2-c2cc(=O)c(C(=O)O)cn21` (single isomer, unassigned) [Example 4.1-II, 10-methoxy-6-(1-methoxy-2-methylpropan-2-yl)-2-oxo-6,7-dihydro-2H-pyrido[2′,1′:3,4]pyrazino[1,2-b]indazole-3-carboxylic Acid], under setting [1], the EC50 is more than 100 nM. Take `CC(C)(C)C1Cn2nc3c(OCCC(F)(F)F)cccc3c2-c2cc(=O)c(C(=O)O)cn21` (racemic) [Example 2.40, 6-(tert-butyl)-2-oxo-10-(3,3,3-trifluoropropoxy)-6,7-dihydro-2H-pyrido[2′,1′:3,4]pyrazino[1,2-b]indazole-3-carboxylic Acid]: under setting [2], the EC50 is less than 1 nM. As for `COCCOc1cccc2c3n(nc12)CC(C(C)(C)C)n1cc(C(=O)O)c(=O)cc1-3` (single isomer, unassigned) [Example 2.2-I, 6-(tert-butyl)-10-(2-methoxyethoxy)-2-oxo-6,7-dihydro-2H-pyrido[2′,1′:3,4]pyrazino[1,2-b]indazole-3-carboxylic Acid], under setting [1], the EC50 was more than 100 nM.

On to `CC(C)(C)C1Cn2nc3c(OC[C@@H]4CCC(=O)N4)cccc3c2-c2cc(=O)c(C(=O)O)cn21` (single isomer, unassigned) [Example 2.33-I], for which, under setting [2], the EC50 is more than 100 nM. Regarding `COc1cccc2c3n(nc12)C1COC(C)(C)C1n1cc(C(=O)O)c(=O)cc1-3` (single isomer, unassigned) [Example 10.1-I, 12-methoxy-3,3-dimethyl-7-oxo-1,3,3a,14a-tetrahydro-7H-furo[3′,4′:5,6]pyrido[2′,1′:3,4]pyrazino[1,2-b]indazole-6-carboxylic Acid], under setting [1], the EC50 is more than 100 nM.

Source of the values: patent US10975078B2, “Fused indazole pyridone compounds as antivirals” (priority 2017, dated 2021).
